Results published in ChEMBL document CHEMBL1201862, “PubChem BioAssay data set” (2004).
Active and inactive are the calls of the source.

Experiments:
[1] = AlphaScreen signal interference compounds, dose response, artefact control for ARNT-TACC3 interaction inhibitor project, biochemical, luminescence, cherry-pick (AID 651705); assay type: functional;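 also: AlphaScreen bead proximity signal that flags compounds interfering with the detection technology; potency reflects signal decrease which marks the compound as an assay artifact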
[2] = target: T1, Beta-2 adrenergic receptor (Homo sapiens, UniProt P07550); experiment: beta2AR agonists driving receptor internalization, dose response, cell-based, FAP fluorogen, flow cytometry, cherry pick 1 (AID 588763); assay type: functional
[3] = target: T1, Beta-2 adrenergic receptor; experiment: Dose response for HTS for Beta-2AR agonists via FAP method from Powderset1.; assay type: functional
[4] = target: Tyrosine-protein phosphatase non-receptor type 5 (Homo sapiens, UniProt P54829); experiment: STEP phosphatase inhibitors, confirmation, biochemical, fluorescence intensity, uHTS hits (AID 602372); assay type: functional; conditions: read-out: IC50_Mean
[5] = target: Dual specificity protein phosphatase 3 (Homo sapiens, UniProt P51452); experiment: VHR phosphatase inhibition, dose response, selectivity assay for STEP inhibitor project, biochemical (AID 602374); assay type: functional; conditions: read-out: IC50_Mean
[6] = target: Tyrosine-protein phosphatase non-receptor type 11 (Homo sapiens, UniProt Q06124); experiment: SHP2 phosphatase inhibition, dose response, selectivity assay for STEP inhibitor project, biochemical (AID 602367); assay type: functional; conditions: read-out: IC50_Mean
[7] = target: SWI/SNF-related matrix-associated actin-dependent regulator of chromatin subfamily A member 2 (Homo sapiens, UniProt P51531); experiment: Luminescence-based cell-based high throughput dose response assay to identify activators of the function of SWI/SNF related, matrix associated, actin dependent regulator of chromatin, subfamily a, member 2 (SMARCA2, BRM).; assay type: functional
[8] = target: T2, DNA repair protein RAD52 homolog (Homo sapiens, UniProt P43351); assay type: functional, biochemical
T2 sequence (P43351 whole entry): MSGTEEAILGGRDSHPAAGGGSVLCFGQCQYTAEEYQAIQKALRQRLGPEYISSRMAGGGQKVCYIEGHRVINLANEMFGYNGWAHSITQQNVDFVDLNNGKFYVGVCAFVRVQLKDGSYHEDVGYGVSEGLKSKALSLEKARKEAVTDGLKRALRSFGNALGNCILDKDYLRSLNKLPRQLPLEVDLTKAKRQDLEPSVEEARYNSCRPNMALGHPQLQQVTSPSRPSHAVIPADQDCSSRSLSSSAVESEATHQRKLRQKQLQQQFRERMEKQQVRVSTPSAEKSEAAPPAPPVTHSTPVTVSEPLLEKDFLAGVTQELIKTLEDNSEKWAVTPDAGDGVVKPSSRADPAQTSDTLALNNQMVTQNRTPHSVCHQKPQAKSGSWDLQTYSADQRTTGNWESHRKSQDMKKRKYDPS

[9] = Counterscreen for activators of the function of SWI/SNF related, matrix associated, actin dependent regulator of chromatin, subfamily a, member 2 (SMARCA2, BRM): Luminescence-based cell-based high throughput dose response assay to identify non-selective compounds using the VP16 reporter assay.; assay type: functional
Vero = experiment: host cell cytotoxicity of antiviral hits, dose response, cytotoxicity control for West Nile virus antiviral project, secondary assay (AID 1650); assay type: functional; conditions: Chlorocebus sabaeus
Aminopeptidase N = target: T3, Aminopeptidase N (Plasmodium falciparum FcB1/Columbia, UniProt O96935); experiment: P. falciparum M1AAP inhibitors, biochemical, fluorogenic H-Leu-NHMec substrate, 1536-well (AID 1445); parameters: species or system Plasmodium falciparum 3D7, 3D7
T3 sequence (O96935 whole entry): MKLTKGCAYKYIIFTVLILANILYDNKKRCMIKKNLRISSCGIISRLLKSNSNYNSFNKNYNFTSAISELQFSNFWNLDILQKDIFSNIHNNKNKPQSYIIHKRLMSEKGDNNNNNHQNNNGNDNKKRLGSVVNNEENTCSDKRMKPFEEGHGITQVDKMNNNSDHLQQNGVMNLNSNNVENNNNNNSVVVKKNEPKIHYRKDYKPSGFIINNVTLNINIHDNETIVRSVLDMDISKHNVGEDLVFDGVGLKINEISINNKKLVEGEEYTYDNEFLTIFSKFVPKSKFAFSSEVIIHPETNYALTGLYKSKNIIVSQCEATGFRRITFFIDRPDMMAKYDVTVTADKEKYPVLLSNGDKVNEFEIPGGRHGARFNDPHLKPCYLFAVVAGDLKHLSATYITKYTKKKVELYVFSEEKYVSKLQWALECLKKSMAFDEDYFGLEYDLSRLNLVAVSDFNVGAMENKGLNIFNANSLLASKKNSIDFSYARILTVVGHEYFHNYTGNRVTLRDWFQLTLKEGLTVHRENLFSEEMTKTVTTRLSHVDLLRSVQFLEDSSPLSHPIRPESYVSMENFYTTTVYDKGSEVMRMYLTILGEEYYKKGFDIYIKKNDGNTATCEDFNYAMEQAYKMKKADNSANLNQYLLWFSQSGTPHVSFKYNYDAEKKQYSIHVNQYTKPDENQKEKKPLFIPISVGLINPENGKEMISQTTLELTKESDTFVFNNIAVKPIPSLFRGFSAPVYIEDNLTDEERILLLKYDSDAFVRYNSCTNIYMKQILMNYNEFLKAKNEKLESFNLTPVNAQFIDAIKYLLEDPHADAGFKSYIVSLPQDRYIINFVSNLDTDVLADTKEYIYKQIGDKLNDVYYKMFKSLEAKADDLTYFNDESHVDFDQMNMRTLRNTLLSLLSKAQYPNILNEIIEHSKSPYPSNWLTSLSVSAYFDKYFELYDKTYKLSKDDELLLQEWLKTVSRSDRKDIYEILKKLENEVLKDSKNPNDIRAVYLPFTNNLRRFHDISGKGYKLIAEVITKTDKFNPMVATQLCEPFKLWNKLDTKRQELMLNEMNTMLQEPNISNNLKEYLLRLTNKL

[10] = target: Arf-GAP with SH3 domain, ANK repeat and PH domain-containing protein 1 (Homo sapiens, UniProt Q9ULH1); assay type: functional;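 also: biochemical fluorescence polarization dose–response screen measuring inhibition of ASAP1; ASAP1 GAP domain stimulating GTP hydrolysis by truncated human ARF1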
[11] = target: T4, Sentrin-specific protease 8 (Homo sapiens, UniProt Q96LD8); assay type: functional
T4 sequence (Q96LD8 whole entry): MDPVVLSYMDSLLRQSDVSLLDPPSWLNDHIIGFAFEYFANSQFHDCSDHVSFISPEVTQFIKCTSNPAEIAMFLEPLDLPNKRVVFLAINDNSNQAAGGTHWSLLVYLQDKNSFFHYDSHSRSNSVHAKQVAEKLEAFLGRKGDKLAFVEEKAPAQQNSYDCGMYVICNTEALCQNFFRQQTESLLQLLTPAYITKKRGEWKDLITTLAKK

Caspase-6 = target: T5, Caspase-6 (Homo sapiens, UniProt P55212); experiment: human caspase-6 inhibitors, dose response, biochemical, VEID-R110 fluorescence, cherry-pick (AID 720632)
T5 sequence (P55212 whole entry): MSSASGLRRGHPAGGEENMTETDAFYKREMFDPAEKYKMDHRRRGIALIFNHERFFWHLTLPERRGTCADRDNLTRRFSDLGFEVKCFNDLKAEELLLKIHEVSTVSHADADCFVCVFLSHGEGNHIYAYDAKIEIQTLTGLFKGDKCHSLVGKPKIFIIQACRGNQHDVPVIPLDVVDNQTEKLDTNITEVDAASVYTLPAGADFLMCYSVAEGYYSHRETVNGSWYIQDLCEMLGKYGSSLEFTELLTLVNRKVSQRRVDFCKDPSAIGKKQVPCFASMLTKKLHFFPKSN

[12] = target: T6, Heat shock factor protein 1 (Mus musculus, UniProt P38532); experiment: inhibition of MG132-induced HSE-luciferase signal, confirmation, cell-based, NIH3T3, luminescence, dose retest (AID 2382); assay type: functional;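 also: NIH3T3 fibroblasts with HSF1-driven luciferase reporter stressed by proteasome inhibitor MG132; luminescence from HSF1-driven luciferase expression after 8 hours of MG132 stress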
T6 sequence (P38532 whole entry): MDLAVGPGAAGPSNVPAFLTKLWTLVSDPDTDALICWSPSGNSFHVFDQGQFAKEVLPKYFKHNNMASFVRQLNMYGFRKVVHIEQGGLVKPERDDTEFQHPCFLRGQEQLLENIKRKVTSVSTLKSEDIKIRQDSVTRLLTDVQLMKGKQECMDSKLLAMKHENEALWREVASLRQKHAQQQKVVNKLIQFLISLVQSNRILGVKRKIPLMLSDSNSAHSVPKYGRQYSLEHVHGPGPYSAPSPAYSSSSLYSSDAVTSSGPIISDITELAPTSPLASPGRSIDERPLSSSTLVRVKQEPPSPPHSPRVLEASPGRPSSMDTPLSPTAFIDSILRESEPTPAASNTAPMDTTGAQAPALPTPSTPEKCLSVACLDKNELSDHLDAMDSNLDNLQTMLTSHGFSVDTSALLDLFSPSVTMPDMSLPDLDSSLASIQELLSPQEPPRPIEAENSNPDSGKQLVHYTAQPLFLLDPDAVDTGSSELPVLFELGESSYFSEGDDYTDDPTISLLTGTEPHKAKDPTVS

[13] = target: T4, Sentrin-specific protease 8; assay type: functional; remark: listed apart in the source
Melanocortin receptor 4 = Melanocortin receptor 4 (Homo sapiens, UniProt P32245); assay type: functional, cell-based;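 also: Cell-based assay with luminescence read-out, confirmatory dose-response testing for agonist activity of biased ligands at MC4R; human U2OS cells with tagged receptor and beta-arrestin; potency of agonists that increase receptor coupling to beta-arrestin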
Streptokinase A = target: T7, Streptokinase A (Streptococcus pyogenes serotype M1, UniProt P10520); experiment: S. pyogenes streptokinase expression inhibitors, potency, dose response, plasminogen activation absorbance, OD405 (AID 1914); assay type: functional, Streptococcus pyogenes M1 GAS;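 also: secreted streptokinase activity via plasminogen activation per viability signal from cell pellet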
T7 sequence (P10520 whole entry): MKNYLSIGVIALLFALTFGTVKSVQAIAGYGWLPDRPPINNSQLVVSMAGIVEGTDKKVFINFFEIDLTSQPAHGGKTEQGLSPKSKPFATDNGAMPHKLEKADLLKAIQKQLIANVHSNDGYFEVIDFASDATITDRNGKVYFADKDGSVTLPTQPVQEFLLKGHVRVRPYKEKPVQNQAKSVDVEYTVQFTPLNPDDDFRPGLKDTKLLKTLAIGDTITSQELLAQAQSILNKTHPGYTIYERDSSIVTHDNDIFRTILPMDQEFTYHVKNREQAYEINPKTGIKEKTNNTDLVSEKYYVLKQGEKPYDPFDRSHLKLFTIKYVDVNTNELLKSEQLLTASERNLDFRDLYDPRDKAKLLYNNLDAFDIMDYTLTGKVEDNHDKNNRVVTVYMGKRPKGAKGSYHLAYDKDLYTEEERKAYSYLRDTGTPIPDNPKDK

[14] = target: T8, High affinity choline transporter 1 (Homo sapiens, UniProt Q9GZV3); experiment: CHT inhibitors, dose response, cell-based, 5-point CRC, membrane potential dye (AID 504840); assay type: functional
T8 sequence (Q9GZV3 whole entry): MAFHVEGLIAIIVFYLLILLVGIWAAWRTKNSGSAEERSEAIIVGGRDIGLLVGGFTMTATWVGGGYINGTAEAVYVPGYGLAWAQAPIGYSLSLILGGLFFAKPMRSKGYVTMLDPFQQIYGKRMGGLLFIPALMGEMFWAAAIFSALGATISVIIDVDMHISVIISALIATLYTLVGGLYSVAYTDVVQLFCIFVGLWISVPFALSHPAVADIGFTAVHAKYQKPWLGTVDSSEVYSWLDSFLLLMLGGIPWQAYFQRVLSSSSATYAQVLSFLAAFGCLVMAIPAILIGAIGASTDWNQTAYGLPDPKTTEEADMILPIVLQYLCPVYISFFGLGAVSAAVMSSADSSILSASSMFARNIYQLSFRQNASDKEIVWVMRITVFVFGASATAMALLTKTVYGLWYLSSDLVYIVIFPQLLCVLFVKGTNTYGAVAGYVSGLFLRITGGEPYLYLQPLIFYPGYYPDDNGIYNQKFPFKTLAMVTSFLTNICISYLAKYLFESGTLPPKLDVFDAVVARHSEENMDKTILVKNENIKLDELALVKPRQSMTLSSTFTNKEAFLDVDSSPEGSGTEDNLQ

Genome polyprotein = Genome polyprotein (dengue virus type 2, UniProt P29990); experiment: Dengue-2 NS5 methyltransferase inhibitors, primary screen, biochemical, confirmation dose response (AID 588689); assay type: functional
Streptococcus = experiment: Group A Streptococcus viability loss, dose response, counter-screen for streptokinase expression inhibitor project, luminescence, BacTiterGlo (AID 1915); assay type: functional, organism-based;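 also: potency for reduction of bacterial viability or growth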
[15] = target: T8, High affinity choline transporter 1; experiment: CHT inhibitors, dose response, cell-based, 10-point CRC, membrane potential dye (AID 588401); assay type: functional;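 also: membrane potential dye fluorescence of choline-evoked depolarization via CHT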
[16] = tested on: Streptococcus sp. 'group A'; experiment: growth inhibition of control SK(-) GAS strain, dose response, counter-screen for streptokinase expression inhibitor project, luminescence, kanamycin, BacTiterGlo, confirmation (AID 1900); assay type: functional, organism-based

T1 sequence (P07550 whole entry): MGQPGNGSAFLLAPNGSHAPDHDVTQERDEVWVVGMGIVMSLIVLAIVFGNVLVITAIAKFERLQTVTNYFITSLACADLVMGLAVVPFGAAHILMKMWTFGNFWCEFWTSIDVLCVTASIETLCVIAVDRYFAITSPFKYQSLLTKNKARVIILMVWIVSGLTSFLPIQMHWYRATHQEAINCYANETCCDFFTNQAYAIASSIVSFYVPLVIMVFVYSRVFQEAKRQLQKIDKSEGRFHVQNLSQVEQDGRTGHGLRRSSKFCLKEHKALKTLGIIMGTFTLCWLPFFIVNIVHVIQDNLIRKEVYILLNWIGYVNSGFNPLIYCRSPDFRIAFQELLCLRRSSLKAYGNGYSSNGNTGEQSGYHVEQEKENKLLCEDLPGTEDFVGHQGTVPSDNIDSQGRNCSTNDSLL
Chain of Tyrosine-protein phosphatase non-receptor type 11 (Q06124 whole entry): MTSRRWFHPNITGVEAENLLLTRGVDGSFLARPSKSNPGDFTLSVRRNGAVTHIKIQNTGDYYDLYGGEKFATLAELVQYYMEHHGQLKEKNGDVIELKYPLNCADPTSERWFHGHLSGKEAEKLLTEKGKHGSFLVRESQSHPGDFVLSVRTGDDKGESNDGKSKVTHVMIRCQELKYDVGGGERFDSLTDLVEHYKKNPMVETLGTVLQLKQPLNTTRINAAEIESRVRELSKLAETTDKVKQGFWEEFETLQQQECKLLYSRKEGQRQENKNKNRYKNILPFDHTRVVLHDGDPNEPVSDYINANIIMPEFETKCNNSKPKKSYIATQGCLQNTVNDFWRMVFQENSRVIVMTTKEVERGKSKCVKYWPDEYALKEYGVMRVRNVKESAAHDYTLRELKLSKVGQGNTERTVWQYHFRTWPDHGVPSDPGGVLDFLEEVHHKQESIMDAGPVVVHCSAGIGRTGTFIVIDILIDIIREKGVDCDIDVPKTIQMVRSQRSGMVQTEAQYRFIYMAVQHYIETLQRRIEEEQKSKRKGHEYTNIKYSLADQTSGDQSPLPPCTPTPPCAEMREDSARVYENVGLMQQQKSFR
Chain of Tyrosine-protein phosphatase non-receptor type 5 (P54829 whole entry): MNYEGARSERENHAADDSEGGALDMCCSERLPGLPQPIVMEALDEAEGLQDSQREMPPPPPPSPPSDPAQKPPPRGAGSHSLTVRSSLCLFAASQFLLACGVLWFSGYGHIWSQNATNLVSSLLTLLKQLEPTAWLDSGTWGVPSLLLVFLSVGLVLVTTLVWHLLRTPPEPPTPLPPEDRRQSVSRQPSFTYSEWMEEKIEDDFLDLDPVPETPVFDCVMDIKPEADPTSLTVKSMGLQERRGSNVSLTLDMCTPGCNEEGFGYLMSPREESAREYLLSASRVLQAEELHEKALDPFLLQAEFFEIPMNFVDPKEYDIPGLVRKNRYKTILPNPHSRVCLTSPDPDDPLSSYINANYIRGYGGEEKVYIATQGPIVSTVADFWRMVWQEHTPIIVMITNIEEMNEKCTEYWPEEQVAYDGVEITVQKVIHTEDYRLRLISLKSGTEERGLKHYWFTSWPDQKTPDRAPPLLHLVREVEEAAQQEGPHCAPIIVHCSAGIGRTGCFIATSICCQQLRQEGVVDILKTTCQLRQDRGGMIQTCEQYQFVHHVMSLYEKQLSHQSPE
Chain of Dual specificity protein phosphatase 3 (P51452 whole entry): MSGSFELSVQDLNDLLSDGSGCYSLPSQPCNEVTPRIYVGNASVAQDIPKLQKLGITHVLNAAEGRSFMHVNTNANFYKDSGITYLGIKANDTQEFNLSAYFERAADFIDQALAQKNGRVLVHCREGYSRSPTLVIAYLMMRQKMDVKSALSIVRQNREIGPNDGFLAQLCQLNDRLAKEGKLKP
Chain of Melanocortin receptor 4 (P32245 whole entry): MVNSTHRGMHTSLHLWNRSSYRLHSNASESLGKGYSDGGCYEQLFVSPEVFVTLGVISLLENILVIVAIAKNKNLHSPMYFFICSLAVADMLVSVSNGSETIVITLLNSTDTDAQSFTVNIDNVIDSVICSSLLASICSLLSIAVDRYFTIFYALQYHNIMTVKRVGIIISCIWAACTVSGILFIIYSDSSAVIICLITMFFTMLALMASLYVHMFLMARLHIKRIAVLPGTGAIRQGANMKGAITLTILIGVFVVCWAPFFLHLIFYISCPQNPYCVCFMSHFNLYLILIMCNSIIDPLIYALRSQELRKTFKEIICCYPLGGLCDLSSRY
Chain of SWI/SNF-related matrix-associated actin-dependent regulator of chromatin subfamily A member 2 (P51531 whole entry): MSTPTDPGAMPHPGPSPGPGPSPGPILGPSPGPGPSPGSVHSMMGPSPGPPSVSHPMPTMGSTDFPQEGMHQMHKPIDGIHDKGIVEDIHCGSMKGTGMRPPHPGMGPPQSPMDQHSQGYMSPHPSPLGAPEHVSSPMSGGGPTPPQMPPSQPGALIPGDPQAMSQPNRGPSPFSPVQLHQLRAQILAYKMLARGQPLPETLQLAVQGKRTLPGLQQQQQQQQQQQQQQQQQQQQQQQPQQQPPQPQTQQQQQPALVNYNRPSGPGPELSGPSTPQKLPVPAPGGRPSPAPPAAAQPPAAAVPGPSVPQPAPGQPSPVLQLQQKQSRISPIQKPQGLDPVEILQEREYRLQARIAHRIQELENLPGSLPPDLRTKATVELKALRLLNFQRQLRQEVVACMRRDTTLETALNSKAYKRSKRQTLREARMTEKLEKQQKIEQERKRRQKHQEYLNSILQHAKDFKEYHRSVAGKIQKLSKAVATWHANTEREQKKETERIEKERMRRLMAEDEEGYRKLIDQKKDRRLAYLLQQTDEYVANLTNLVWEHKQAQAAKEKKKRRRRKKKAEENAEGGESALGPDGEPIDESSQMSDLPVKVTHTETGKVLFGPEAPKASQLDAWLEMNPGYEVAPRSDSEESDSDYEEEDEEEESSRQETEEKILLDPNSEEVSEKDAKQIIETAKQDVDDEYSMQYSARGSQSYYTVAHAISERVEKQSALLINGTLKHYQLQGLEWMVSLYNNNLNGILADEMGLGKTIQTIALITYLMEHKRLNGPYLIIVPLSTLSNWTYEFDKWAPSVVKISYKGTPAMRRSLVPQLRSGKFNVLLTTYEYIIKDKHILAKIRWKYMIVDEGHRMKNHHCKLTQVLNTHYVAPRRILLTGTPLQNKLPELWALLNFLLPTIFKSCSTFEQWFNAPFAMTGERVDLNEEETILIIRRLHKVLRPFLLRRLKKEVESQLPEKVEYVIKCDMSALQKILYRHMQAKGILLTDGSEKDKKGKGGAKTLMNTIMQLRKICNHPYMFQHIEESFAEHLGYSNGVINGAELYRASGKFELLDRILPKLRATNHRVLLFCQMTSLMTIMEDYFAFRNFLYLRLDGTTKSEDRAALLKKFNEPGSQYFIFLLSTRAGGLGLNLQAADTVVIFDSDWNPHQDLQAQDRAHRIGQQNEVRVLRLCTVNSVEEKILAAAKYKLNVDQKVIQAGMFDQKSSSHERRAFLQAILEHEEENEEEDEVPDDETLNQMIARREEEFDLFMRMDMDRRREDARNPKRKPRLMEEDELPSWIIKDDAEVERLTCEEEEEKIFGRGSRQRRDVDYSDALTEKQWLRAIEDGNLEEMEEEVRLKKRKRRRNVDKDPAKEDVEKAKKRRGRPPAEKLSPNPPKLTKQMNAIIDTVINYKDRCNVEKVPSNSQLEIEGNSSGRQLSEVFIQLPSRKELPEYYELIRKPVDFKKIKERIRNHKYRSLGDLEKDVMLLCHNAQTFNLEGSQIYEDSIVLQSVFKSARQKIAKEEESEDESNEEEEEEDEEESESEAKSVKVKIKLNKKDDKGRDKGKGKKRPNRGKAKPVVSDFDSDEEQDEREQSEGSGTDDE
Chain of Genome polyprotein (P29990 2492-3391 limits assumed): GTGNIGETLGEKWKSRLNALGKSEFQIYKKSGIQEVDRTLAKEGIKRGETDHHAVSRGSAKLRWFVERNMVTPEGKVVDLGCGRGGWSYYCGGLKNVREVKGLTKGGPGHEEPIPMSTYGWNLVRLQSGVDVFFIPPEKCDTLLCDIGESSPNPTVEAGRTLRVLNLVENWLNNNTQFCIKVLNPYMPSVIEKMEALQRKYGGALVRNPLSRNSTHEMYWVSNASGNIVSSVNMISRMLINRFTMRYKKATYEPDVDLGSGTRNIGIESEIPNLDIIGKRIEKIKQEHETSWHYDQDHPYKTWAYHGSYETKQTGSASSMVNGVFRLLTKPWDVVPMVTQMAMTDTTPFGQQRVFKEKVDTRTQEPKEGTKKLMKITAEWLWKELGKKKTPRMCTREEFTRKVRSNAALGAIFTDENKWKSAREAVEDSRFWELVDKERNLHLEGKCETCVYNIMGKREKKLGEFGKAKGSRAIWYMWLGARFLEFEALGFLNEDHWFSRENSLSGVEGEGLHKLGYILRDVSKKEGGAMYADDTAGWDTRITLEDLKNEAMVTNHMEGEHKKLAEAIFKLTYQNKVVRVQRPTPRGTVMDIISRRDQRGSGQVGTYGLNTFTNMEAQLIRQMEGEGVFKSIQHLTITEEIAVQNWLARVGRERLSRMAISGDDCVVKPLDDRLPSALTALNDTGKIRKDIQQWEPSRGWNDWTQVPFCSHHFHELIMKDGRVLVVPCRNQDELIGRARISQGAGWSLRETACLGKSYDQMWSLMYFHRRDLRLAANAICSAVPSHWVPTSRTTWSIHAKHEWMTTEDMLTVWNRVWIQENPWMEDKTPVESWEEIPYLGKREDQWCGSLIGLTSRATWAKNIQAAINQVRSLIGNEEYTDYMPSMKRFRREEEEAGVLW

## O=C(CSc1ccc(-c2ccccn2)nn1)c1ccc([N+](=O)[O-])cc1
[1]
  AC50: 131 µM (active)

## CCOC(=O)N1CCN(C(=O)CN(C)S(=O)(=O)c2ccc(Cl)cc2)CC1
[2]
  EC50: 1.95 µM (active)
[3]
  EC50: 0.987 µM (active)

## COc1ccc(NC(=S)N(CCCN2CCC(C)CC2)Cc2cccs2)cc1Cl
[4]
  IC50: 55.6 µM (inactive)
[5]
  IC50: 4.18 µM (active)
[6]
  IC50: 6.76 µM (active)

## Cc1ccc(SCC(=O)Nc2ccc(-c3nc4ccccc4[nH]3)cc2)cc1
[2]
  EC50: 0.0116 µM (active)
[3]
  EC50: 0.00682 µM (active)

## O=C1c2ccccc2C(=O)c2c(NCCCN(CCO)CCO)cccc21
[7]
  EC50: > 10.1 µM (inactive)
[8]
  AC50: 0.977 µM (active)
[9]
  EC50: > 91.2 µM (inactive)
Vero
  CC50: 13.9 µM (active)
Aminopeptidase N
  IC50: 77.7 µM (active)

## COc1cccc(-n2nnc3c(=O)n(Cc4ccc(Br)cc4)cnc32)c1
[10]
  IC50: 24.7 µM (inactive)

## O=C1Cc2ccccc2C(=O)N1c1cccc(Cl)c1
[11]
  IC50: > 100 µM (inactive)
Caspase-6
  AC50: 35.6 µM (active)
[12]
  EC50: > 195 µM (not active)
[13]
  IC50: 6.08 µM (active)

## COc1ccc2nc(NC(=O)CSc3nc4cccnc4n3C)sc2c1
Melanocortin receptor 4
  EC50: > 89.2 µM (inactive)

## COC(=O)N/N=C1/C/C(=N\NC(=O)OC)c2ccccc21
[11]
  IC50: 0.557 µM (active)
Caspase-6
  AC50: 4.22 µM (active)
[13]
  IC50: 0.365 µM (active)

## Clc1ccc(Cl)c(-c2nc(-c3ccncc3)no2)c1
[4]
  IC50: > 80 µM (inactive)
[5]
  IC50: 25.4 µM (inactive)
[6]
  IC50: 6.55 µM (active)

## COc1cc(/C=C2\SC(NS(=O)(=O)c3ccccc3)=NC2=O)c([N+](=O)[O-])cc1OC
Streptokinase A
  EC50: > 150 µM (not active)
[14]
  IC50: 4.17 µM (active)
Genome polyprotein
  IC50: 43.4 µM (active)
Streptococcus
  EC50: > 150 µM (not active)
[15]
  IC50: 8.91 µM (active)
Aminopeptidase N
  IC50: 25.5 µM (active)
[16]
  EC50: 25.6 µM (active)
